Measurements taken from patent US7429580B2, “Compositions of an anticonvulsant and an antipsychotic drug and methods of using the same for affecting weight loss” (Orexigen Therapeutics, Inc., priority 2004, dated 2008).
“Also recorded” adds a separate entry of the source. Read-outs that look alike come from different tables or passages of the source.

Tests used:
[1] = Case study Example 14: zonisamide, olanzapine, valproate and bupropion; assay type: in vivo, human; details: for effect on weight gain resulting from olanzapine and valproate: summary of the case
Description: At this point, zonisamide was added to their medication regimen at 100 mg/day and the dose was increased to 200 mg/day after two weeks.

[2] = biological target: dopamine D2 receptors (Homo sapiens, UniProt P14416); details: cited from earlier work
[3] = Rodent model of olanzapine-induced weight gain; assay type: in vivo, rats; details: addition to concomitant olanzapine treatment (about 1.75 mg/kg/day); doses tbd
Description: Rats receive implants that secrete olanzapine (or vehicle in control groups). Some also receive co-treatment with zonisamide; others get co-treatment with zonisamide plus bupropion. Initially, a dose of 30 mg/kg of zonisamide (bid) is used, but the dose in the experiment ranges from 20 mg/kg to 90 mg/kg (bid). […] Olanzapine is used as a solution in minipumps. The concentration of the solution ranges between 0.1 μM to 10 mM. In some experiments, the concentration is calculated to provide a dose of about 1.75 mg/kg/day. In certain experiments, the concentration is 10 μM.
Female Sprague-Dawley rats weighing about 300 grams at the start of the experiment are used. Under isoflurane anesthesia, Alzet osmotic minipumps (2 ml2) are implanted subcutaneously, between the shoulder blades. The rats are returned to their home cages after recovery. The minipumps deliver 5 μL per hour for 14 days. Olanzapine is dissolved in dH2O+10% dilute lactic acid. A pH of about 3.5 enables the olanzapine to dissolve completely and produce a golden solution. This pH level has no effect on the animals in either the drug groups or the vehicle group. The animals are housed individually and are supplied with standard laboratory chow. Food consumed and animal weights are recorded every 3 days, to minimize disruption of the animals.

[4] = Rat-weight gain assay: rodent model of mirtazapine-induced weight gain; assay type: in vivo, rats; details: addition to concomitant mirtazapine treatment; doses tbd
Description: We have developed a model to pre-clinically test the effects of mirtazapine on body weight gain. […] Initially, a dose of 30 mg/kg of zonisamide (bid) is used, but the dose in the experiment ranges from 20 mg/kg to 90 mg/kg (bid). […] Mirtazapine or setiptiline are used as solutions in minipumps. The concentration of the solution ranges between 0.1 μM to 10 mM. In some experiments, the concentration is calculated to provide a dose of about 1 mg/kg/day. In certain experiments, the concentration is 10 μM.
In a 4×3 design rats receive implants that secrete mirtazapine, or setiptiline, or vehicle. Some rats also receive co-treatment with saline, some receive zonisamide, some receive bupropion, and others receive co-treatment with zonisamide plus bupropion. In this way cohorts of 10 rats receive all possible combinations of the weight loss drug(s) with mirtazapine or setiptiline.
Female Sprague-Dawley rats weighing about 300 grams at the start of the experiment are used. Under isoflurane anesthesia, Alzet osmotic minipumps (2 ml2) are implanted subcutaneously between the shoulder blades. The rats are returned to their home cages after recovery. The minipumps deliver 5 μL per hour for 14 days. A range of doses of mirtazapine (from 0.1 to 20 mg/kg/day dissolved in DMSO/saline) are used. […] Food consumed and animal weights are recorded every 3 days, to minimize disruption of the animals.

[5] = Case study Example 13: zonisamide, paroxetine and risperidone; assay type: in vivo, human
Description: They were therefore started on zonisamide 100 mg, incraesed to 200 mg. […] The dose was then increased to 300 mg and then to 600 mg.

[6] = test system: mice; assay: Food intake in mice (acute, after fast / intra-peritoneal injection); assay type: in vivo; details: for food intake: other preclinical experiments, each compound alone
[7] = test system: serotonin and dopamine synthesis; details: cited from earlier work
[8] = cited from earlier work
[9] = Case study Example 12: zonisamide added to clonazepam, fluoxetine and lamotrogine; assay type: in vivo, human; details: person, bipolar disorder; zonisamide 100 mg qD added to clonazepam, fluoxetine, lamotrogine
Description: A person having biopolar disorder, Type I, had been treated for just over year by their psychiatrist using clonazepam 1 mg qHS, fluoxetine 20 mg qd, and lamotrogine 300 mg qD. One particular complaint was that they had “constant thoughts of eating”. Their psychiatrist started them on zonisamide 100 mg qD. […] The dose was continued and despite multiple stressors at home, they continued to do well on the treatment regimen.

[10] = test system: POMC neurons; assay: Electrophysiological activity of POMC neurons in brain slices from POMC-EGFP mice; assay type: cell-based
Description: (§1) The electrophysiological activity of Proopiomelanocortin (POMC) neurons in brain slices from POMC-EGFP mice are recorded. The POMC neurons in these mice are identified by the expression of green fluorescent protein (EGFP) in these, and only these, cells. The frequency of action potentials in these neurons are recorded using standard electrophysiological techniques. In particular loose cell attached patch configuration is used to determine action potential frequency, whilst minimally disturbing the cells.
as §1, with “particular,” for “particular”

dopamine D2 receptors, sequence (P14416 whole entry): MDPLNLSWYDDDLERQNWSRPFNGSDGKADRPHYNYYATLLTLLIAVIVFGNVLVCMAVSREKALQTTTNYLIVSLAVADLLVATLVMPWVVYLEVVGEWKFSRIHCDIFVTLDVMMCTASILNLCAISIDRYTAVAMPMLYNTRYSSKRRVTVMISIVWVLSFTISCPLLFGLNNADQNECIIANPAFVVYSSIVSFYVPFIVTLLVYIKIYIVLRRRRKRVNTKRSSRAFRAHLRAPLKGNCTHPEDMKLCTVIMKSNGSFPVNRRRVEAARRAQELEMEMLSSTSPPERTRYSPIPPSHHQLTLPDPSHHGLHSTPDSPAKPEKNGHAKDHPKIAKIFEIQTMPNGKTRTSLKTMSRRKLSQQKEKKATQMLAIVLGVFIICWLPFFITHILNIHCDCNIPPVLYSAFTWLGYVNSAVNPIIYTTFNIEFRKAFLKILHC

NS(=O)(=O)Cc1noc2ccccc12 [zonisamide]
weight lost ([1]; over the next 4 months, zonisamide 100 then 200 mg/day added to bupropion, olanzapine, valproate): 15 lbs | effect on weight gain resulting from olanzapine and valproate [1]: helped in further offsetting weight gain | adverse effects ([1]; zonisamide 100 then 200 mg/day added to bupropion, olanzapine, valproate): no adverse effects | stimulation of dopamine D2 receptors [2]: stimulates dopamine D2 receptors | weight gain associated with olanzapine [3]: decrease the weight gain associated with olanzapine | weight gain associated with mirtazapine [4]: decreases the weight gain associated with mirtazapine | weight lost ([5]; in 3 weeks, zonisamide 100 mg increased to 200 mg): 12 pounds | weight relative to baseline ([5]; in 5 months, zonisamide increased to 300 mg and then 600 mg): their weight returned to baseline | food intake after intra-peritoneal injection ([6]; mice): pronounced effects on food intake | food intake over 24 hrs after intra-peritoneal injection ([6]; mice): pronounced effects on food intake | food intake [6]: inhibit food intake | serotonin and dopamine synthesis rates [7]: increases serotonin and dopamine synthesis rates | weight reducing effects in humans ([8]; Gadde et al, 2003, 2001): well demonstrated in humans | tolerability / side effects ([8]; compared with placebo treatment, Gadde et al, JAMA 2003): well tolerated; also recorded: fatigue being the only side effect that occurred more frequently than with placebo treatment | weight loss ([8]; patients presenting with primary obesity, Gadde et al, JAMA 2003): significant weight loss | craving for food [9]: significantly reduced their craving for food | weight gain [9]: prevented weight gain | electrophysiological activity of POMC neurons [10]: increase the electrophysiological activity of POMC neurons

CC(NC(C)(C)C)C(=O)c1cccc(Cl)c1 (stereo not shown) [bupropion]
weight lost ([1]; after 6 months, bupropion 150 mg/day added to olanzapine and valproate): 23.6 lbs | adverse effect reported ([1]; bupropion dose raised to 300 mg/day): feeling hyperactive | adverse effect limiting higher dose ([1]; higher dose (300-400 mg/day) of bupropion): precipitation of hypomanic symptoms | weight regained ([1]; over the next 10 months while continuing bupropion): 10.6 lbs | effect on weight gain resulting from olanzapine and valproate [1]: helped in decreasing weight gain | weight gain associated with mirtazapine [4]: decreases the weight gain associated with mirtazapine | weight loss ([5]; trial of bupropion alone, patient on paroxetine and risperidone): did not cause significant weight loss | food intake after intra-peritoneal injection ([6]; mice): pronounced effects on food intake | food intake [6]: inhibit food intake | electrophysiological activity of POMC neurons [10]: increase the electrophysiological activity of POMC neurons
